The results in this text go back to US20030203975A1, “Anti-cancer agents” (priority 1998, published 2003).

For data set [1], the system named is MAC 15A adenocarcinoma of the colon. In words: In vitro chemosensitivity against MAC 15A adenocarcinoma (MTT assay). The format is cell-based. As to conditions: Mus musculus, MAC15A, 96 hours continuous exposure. As to the method:
In Vitro Activity Against MAC 15A Adenocarcinoma.
MAC 15A cells were grown in RPMI 1640 medium supplemented with 10% foetal calf serum containing a 1% antibiotic mixture under standard tissue culture conditions and were maintained at 37° C. in a humidified atmosphere of 5% CO2 in air. Cells were harvested from a stock culture in exponential growth phase and plated in 96-well flat-bottomed plates to achieve a final density of 2×10^3 cells per well. After 2 hours incubation medium was replaced with either fresh medium containing 0.5% DMSO (control) or medium containing test compound dissolved in DMSO at a concentrations from 10 mM to 1 nM. Chemosensitivity was assessed using MTT assay by the method of Plumb et al Cancer Research 49 (1989) 4435-4440.
Following 96 hours continuous exposure to drug at 37° C. cells were incubated with fresh drug-free medium immediately prior to addition of MTT solution (5 mg/ml). Medium and MTT were removed after 4 hours and 150 μl of DMSO was added. For each plate the absorbance of the resulting solution was measured at the analytical wavelength 550 nm for formazan product, using a Labsystem Mutiskan. IC50 values were obtained from growth curves of drug concentration against % survival and are expressed in μm.
A general note: Formazan colour is commonly taken as a measure of viable cells.

Data set [2] concerns DNA: Calf thymus sodium salt. Briefly: DNA binding assay, ethidium bromide displacement. Also on record: key: NB = Not binding. As to conditions: concentration required to displace 50% of the ethidium bromide; 20 μM DNA, 2 μM dye. As to the method: (§1) The propensity of selected compounds to bind to DNA in the absence of topos was measured in order to identify compounds that would bind weakly, or not at all. […] A […] was used determine binding constants of the compound to DNA by displacement of either ethidium bromide (an intercalator) or Hoechst dye 33258 (a groove binder) which form a DNA-bound fluorescent complex measured by fluorescence spectroscopy.
(§2) DNA Binding Assay Protocol
(§3) In order to detect the strength and mode of anthraquinone compound binding to DNA the displacement of known DNA binders was detected by measuring the fluorescence of a DNA/fluorescent compound complex. The addition of known concentrations of ethidium bromide, an interchelator, and Hoescht Dye, a groove binder, cause a fluorescent DNA/binder complex that can be detected and the fluorescence quantified. The addition of anthraquinone compounds displaces the interchelators or groove binders, depending on the compound mode of DNA binding, and therefore reduces the fluorescence accordingly. The preferred binding action of compounds can be quantified by determining the reduction in fluorescence resulting from a given concentration of compound. The quantification of a compounds ability to bind to DNA is expressed, as the concentration required to displace 50% of the ethidium bromide or Hoescht Dye, thus reducing the fluorescence by 50%. Therefore, the values produced are QE50 for ethidium, bromide, or QH50 for Hoescht Dye.
(§4) Compound: 300, 60, 10 and 10/6gM (1.66 μM) solution concentrations were prepared for use in the assay to produce a range of compound. Concentrations. 100, 200 and 300 μl of each dilution were used in the assay reaction. This provides a range of concentrations: −30, 20, 10, 6, 4, 2, 1, 0.67, 0.33, 0.17, 0.11, 0.06, 0.00 μM in the assay environment. Intermediate concentrations can be utilised to enhance the accuracy of the displacement concentration determination.
(§5) Buffer: 100 mM Tris, NaCI 500 mM. DNA: Calf thymus sodium salt. Stock solution of 200 μM was prepared in 10× assay buffer. Dilution of DNA therefore provided the correct concentration of assay buffer in the assay cell.300 μg DNA was used in 3 ml reaction mixture therefore 20 μM DNA concentration. Hoescht Dye 2 μM final concentration, therefore 100 μl of a 60 μM stock solution was added to a 3 ml assay. Ethidium Bromide 2 μM final concentration therefore 100 μl of a 60 μM stock solution was added to a 3 ml assay. Distilled H2O Water was added to produce 3 ml reaction volume. Order of addition: 1. DNA, 2. Water, 3. Drug, 4. Dye
(§6) The assay was completed with both Hoescht Dye and Ethidium. Bromide for each compound. The ethidium bromide is a DNA inter-chelator, Hoescht Dye is a minor groove binder. 100, 200 and […] of the lowest compound dilution was assayed. This procedure was repeated with all further dilution's. This provided a curve of fluorescence intensity decrease with increasing compound concentration. QE50 and QH50 values were determined by extrapolating the concentration of compound at the point where the fluorescence intensity was reduced by 50%. Controls involving compound only and ethidium. bromide or Hoechst Dye without compound were carried out for each experiment. Two readings for each concentration of compound were performed per experiment, each experiment was repeated at least three times. Fluorometer: Perkin Elmer Luminescence Spectrometer LS 50B.

For data set [3], the system named is DNA: Calf thymus sodium salt. In words: DNA binding assay, Hoechst dye displacement. Also on record: key: NB = Not binding. Particulars: concentration required to displace 50% of the Hoescht Dye; 20 μM DNA, 2 μM dye. As to the method:
as §1, §2, §3, §4, §5, §6

Each structure is given as a SMILES string.

Turning to `NCC(=O)OCCCNc1cccc2c1C(=O)c1ccccc1C2=O.O=C(O)C(F)(F)F` [Example 61, 1-[3-(glycyloxy)propylamino]anthracene-9,10-dione trifluoroacetate], the melting point was 198 °C. Also, the IC50 in data set [1] amounted to 10.6 µM.
On the same counts, the results for `N[C@H](Cc1ccccc1)C(=O)OCCCNc1cccc2c1C(=O)c1ccccc1C2=O.O=C(O)C(F)(F)F` [Example 65, 1-[3-(D-phenylalanyloxy)propylamino]anthracene-9,10-dione trifluoro-acetate] are 102 °C and 4.8 µM.
The compound `C[C@@H](N)C(=O)OCCCNc1cccc2c1C(=O)c1ccccc1C2=O.O=C(O)C(F)(F)F` [Example 63, 1-[3-(D-alanyloxy)propylamino]anthracene-9,10-dione trifluoroacetate] returned a melting point of 134 °C. Moreover, the IC50 in data set [1] is 6.9 µM. The “QE50 Intercalating” value in data set [2] is listed as “NB”. For the same compound, the “QH50 Minor groove binding” value in data set [3] was “NB”.
For the compound `NCC(=O)OCCCNc1ccc(O)c2c1C(=O)c1ccccc1C2=O.O=C(O)C(F)(F)F` [Example 123, 4-hydroxy-1-[3-(glycyloxy)propylamino]anthracene-9,10-dione tri-fluoroacetate], the melting point amounted to 188 °C. Besides, the IC50 in data set [1] (96 h) was 0.3 µM.
Compound `CC(C)C[C@H](N)C(=O)NCC(=O)OCCCNc1cccc2c1C(=O)c1ccccc1C2=O.O=C(O)C(F)(F)F` [Example 133, 1-[3-(L-leucylglycyloxy)propylamino]anthracene-9,10-dione trifluoroacetate] registered a melting point of 100 °C. This compound showed an IC50 in data set [1] of 1.2 µM.
Consider `N[C@@H](Cc1ccccc1)C(=O)OCCNc1cccc2c1C(=O)c1ccccc1C2=O.O=C(O)C(F)(F)F` [Example 33, 1-[2-(L-phenylalanyloxy)ethylamino]anthracene-9,10-dione trifluoro-acetate], for which, in data set [2], the “QE50 Intercalating” value was “NB”. Further, in data set [3], the “QH50 Minor groove binding” value was “NB”.
In the case of `O=C1c2c(O)ccc(O)c2C(=O)c2c(NCCNCCO)ccc(NCCNCCO)c21` [Mitoxantrone, reference compound], the “QE50 Intercalating” value in data set [2] came to 0.8 ± 0.3 µM. Further, in data set [3], the “QH50 Minor groove binding” value was determined as 1.2 ± 0.3 µM.
For the compound `O=C(O)C(F)(F)F.O=C1c2ccccc2C(=O)c2c(NCCCOC(=O)[C@H]3CCCN3)cccc21` [Example 69, 1-[3-(D-prolyloxy)propylamino]anthracene-9,10-dione trifluoroacetate], the melting point stood at 66 °C. Also, the IC50 in data set [1] is 10.2 µM. In data set [2], the “QE50 Intercalating” value is listed as “NB”. The “QH50 Minor groove binding” value in data set [3] is on record as “NB”.
Turning to `CNCC(=O)OCCCCNc1cccc2c1C(=O)c1ccccc1C2=O.O=C(O)C(F)(F)F` [Example 83, 1-[4-(sarcosyloxy)butylamino]anthracene-9,10-dione trifluoroacetate], the melting point was 132 °C. Also, the IC50 in data set [1] is 7.2 µM.
For the compound `CC(C)[C@H](N)C(=O)OCCCCNc1ccc(O)c2c1C(=O)c1ccccc1C2=O.O=C(O)C(F)(F)F` [Example 53, 4-hydroxy-1-[4-(L-valyloxy)butylamino]anthracene-9,10-dione tri-fluoroacetate], the IC50 in data set [1] (96 h) was 5.3 µM. In addition, the “QE50 Intercalating” value in data set [2] came out at 2.9 µM. In addition, the “QH50 Minor groove binding” value in data set [3] is 4.4 µM.
With `O=C(O)C(F)(F)F.O=C1c2ccccc2C(=O)c2c(NCCCOC(=O)[C@@H]3CCCN3)cccc21` [Example 67, 1-[3-(L-prolyloxy)propylamino]anthracene-9,10-dione trifluoroacetate], the melting point was determined as 66 °C. Moreover, in data set [1], half-maximal inhibition (IC50) was put at 8.3 µM. The “QE50 Intercalating” value in data set [2] was “NB”. Further, the “QH50 Minor groove binding” value in data set [3] is listed as “NB”.
`NCC(=O)OCCNc1cccc2c1C(=O)c1ccccc1C2=O.O=C(O)C(F)(F)F` [Example 59, 1-[2-(glycyloxy)ethylamino]anthracene-9,10-dione trifluoroacetate]: the melting point turned out to be 180 °C. For the same compound, the 50% inhibitory concentration (IC50) in data set [1] came to 3.5 µM.
The compound `CN[C@@H](C)C(=O)OCCCCNc1cccc2c1C(=O)c1ccccc1C2=O.O=C(O)C(F)(F)F` [Example 91, 1-[4-(N-methyl-L-alanyloxy)butylamino]anthracene-9,10-dione tri-fluoroacetate] yielded a melting point of 84 °C. The same compound displayed an IC50 in data set [1] (96 h) of 4.8 µM.
In turn, `C[C@H](N)C(=O)OCCCNc1cccc2c1C(=O)c1ccccc1C2=O.O=C(O)C(F)(F)F` [Example 29, 1-[3-(L-alanyloxy)propylamino]anthracene-9,10-dione trifluoroacetate] came in with a melting point of 126 °C. Besides, in data set [1], the IC50 is 9.7 µM. For the same compound, the “QE50 Intercalating” value in data set [2] is listed as “NB”. The “QH50 Minor groove binding” value in data set [3] is given as “NB”.
Take `NCC(=O)N1CCC[C@H]1C(=O)OCCCNc1cccc2c1C(=O)c1ccccc1C2=O.O=C(O)C(F)(F)F` [Example 131, 1-[3-(glycyl-L-prolyloxy)propylamino]anthracene-9,10-dione tri-fluoroacetate]: the melting point worked out at 146 °C. The compound further returned a half-maximal inhibitory concentration (IC50) in data set [1] (96 h) of 2.5 µM.
For the compound `NCC(=O)OCCCNc1ccc(O)c2c1C(=O)c1c(O)cccc1C2=O.O=C(O)C(F)(F)F` [Example 127, 4,8-dihydroxy-1-[3-(glycyloxy)propylamino]anthracene-9,10-dione trifluoroacetate], the melting point came to 196 °C. Moreover, the IC50 in data set [1] worked out at 1.3 µM.
Turning to `CC(C)(C)OC(=O)N1CCC[C@@H]1C(=O)OCCCNc1cccc2c1C(=O)c1ccccc1C2=O`, the melting point was determined as 120 °C.
Compound `CC(C)(C)OC(=O)NCC(=O)OCCNc1cccc2c1C(=O)c1ccccc1C2=O` [Example 58, 1-[2-(N-tertiarybutoxycarbonylglycyloxy)ethylamino]anthracene-9,10-dione] yielded a melting point of 122 °C.
`CC[C@H](N)C(=O)OCCCCNc1cccc2c1C(=O)c1ccccc1C2=O.O=C(O)C(F)(F)F` [Example 87, (S)-1-[4-(2-aminobutanoyloxy)butylamino]-anthracene-9,10-dione trifluoroacetate]: the melting point came to 118 °C. For the same compound, inhibition in data set [1] was half-maximal at 3 µM (IC50).
In turn, `O=C(O)C(F)(F)F.O=C1c2ccccc2C(=O)c2c(NCCOC(=O)[C@@H]3CCCN3)cccc21` [Example 137, 1-[2-(prolyloxy)ethylamino]anthracene-9,10-dione trifluoroacetate] showed an IC50 in data set [1] of 33.5 µM. In addition, the “QE50 Intercalating” value in data set [2] is “NB”. Also, the “QH50 Minor groove binding” value in data set [3] was “NB”.
Regarding `C[C@H](NC(=O)OC(C)(C)C)C(=O)OCCCCNc1cccc2c1C(=O)c1ccccc1C2=O` [Example 42, 1-[4-(N-tertiarybutoxycarbonyl-L-alanyloxy)butylamino] anthracene-9,10-dione], the melting point was 102 °C.

A word on the IC50: it is the point on the concentration scale where inhibition reaches its midpoint. The term melting point denotes the temperature of the solid-liquid transition.
